In series [1] the target is T1, Amine oxidase [flavin-containing] A (Homo sapiens, UniProt P21397).
T1 sequence (P21397 whole entry): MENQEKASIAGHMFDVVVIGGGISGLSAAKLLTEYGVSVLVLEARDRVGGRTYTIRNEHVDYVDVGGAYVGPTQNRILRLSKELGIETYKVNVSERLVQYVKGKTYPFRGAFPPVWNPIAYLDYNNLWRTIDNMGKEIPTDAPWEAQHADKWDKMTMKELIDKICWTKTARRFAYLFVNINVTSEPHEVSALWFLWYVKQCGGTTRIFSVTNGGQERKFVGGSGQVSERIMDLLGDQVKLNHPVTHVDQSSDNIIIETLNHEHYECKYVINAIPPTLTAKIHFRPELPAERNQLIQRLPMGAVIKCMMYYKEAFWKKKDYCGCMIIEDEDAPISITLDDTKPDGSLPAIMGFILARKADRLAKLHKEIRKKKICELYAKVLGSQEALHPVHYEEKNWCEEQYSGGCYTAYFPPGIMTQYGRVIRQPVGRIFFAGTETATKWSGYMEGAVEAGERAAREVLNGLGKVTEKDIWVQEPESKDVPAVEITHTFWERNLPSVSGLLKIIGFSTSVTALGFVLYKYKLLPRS
In words: Inhibition of recombinant human MAO-A assessed as residual activity at 20 uM using kynuramine as substrate incubated for 20 mins by spectrophotometric method relative to control. As to conditions: read-out: Activity.

The target of series [2] is T1, Amine oxidase [flavin-containing] A. In words: Inhibition of recombinant human MAO-A using kynuramine as substrate incubated for 20 mins by spectrophotometric method.
For series [3], the target named is T2, Amine oxidase [flavin-containing] B (Homo sapiens, UniProt P27338).
T2 sequence (P27338 whole entry): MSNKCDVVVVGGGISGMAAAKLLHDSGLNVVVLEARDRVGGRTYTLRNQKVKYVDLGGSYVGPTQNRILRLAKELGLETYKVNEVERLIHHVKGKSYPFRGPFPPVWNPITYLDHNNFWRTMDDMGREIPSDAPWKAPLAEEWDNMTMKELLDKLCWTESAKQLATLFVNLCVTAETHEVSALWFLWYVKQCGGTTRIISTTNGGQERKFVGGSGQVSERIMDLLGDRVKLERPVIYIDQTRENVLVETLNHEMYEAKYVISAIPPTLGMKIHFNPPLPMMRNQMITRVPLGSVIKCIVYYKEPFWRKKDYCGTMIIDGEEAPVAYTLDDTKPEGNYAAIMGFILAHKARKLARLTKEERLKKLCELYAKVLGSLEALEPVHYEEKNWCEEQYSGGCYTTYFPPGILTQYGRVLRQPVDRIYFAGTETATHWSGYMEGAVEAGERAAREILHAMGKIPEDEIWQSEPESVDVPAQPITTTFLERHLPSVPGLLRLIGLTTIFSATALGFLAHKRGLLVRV
The series can be described thus: Inhibition of recombinant human MAO-B using benzylamine as substrate incubated for 30 mins by spectrophotometric method.

In series [4] the target is T2, Amine oxidase [flavin-containing] B. The series can be described thus: Inhibition of recombinant human MAO-B assessed as residual activity at 20 uM using benzylamine as substrate incubated for 30 mins by spectrophotometric method relative to control. As to conditions: 0.5 h, read-out: Activity.
The species named for a further series is Homo sapiens. In words: Selectivity index, ratio of IC50 for recombinant human MAO-B to IC50 for recombinant human MAO-A.
Series [5] has as its target T1, Amine oxidase [flavin-containing] A. The series can be described thus: Reversible inhibition of recombinant human MAO-A assessed as residual activity at 1.1 uM using kynuramine as substrate preincubated for 30 mins followed by dialysis for 6 hrs by spectrophotometric method relative to control. As to conditions: read-out: Activity.
Series [6] has the same target. In words: Inhibition of recombinant human MAO-A assessed as residual activity at 1.1 uM using kynuramine as substrate after 30 mins by spectrophotometric method relative to control. To be noted: 0.5 h, read-out: Activity.
The target is the same in series [7]. In words: Inhibition of recombinant human MAO-A expressed in baculovirus infected insect cells using aminoproplyether of luciferin methyl ester as substrate after 90 mins by chemiluminescence assay.
Series [8] shares this target. In words: Inhibition of recombinant human MAO-A using kynuramine as substrate by spectrophotometric method. To be noted: TDE = time-dependent effect.
Series [9] has the same target. In words: Competitive inhibition of recombinant human MAO-A using kynuramine as substrate by Lineweaver-Burk plot analysis.

As a reminder, the IC50 is the concentration that inhibits the measured activity by half. Broadly, the Ki is the equilibrium dissociation constant of an inhibitor or competing ligand from its target.

As to `COc1cc2c(cc1OC)-c1c(OC)c(OC)cc3ccnc(c13)C2=O` [OXOGLAUCINE], the activity at 20 µM in [1] was 89.7%; in [4], 64.9%. In addition, the IC50 in series [2] and in series [3] was over 20 µM each time.
For `COc1ccc(-c2cc(=O)c3c(O)cc(O)cc3o2)cc1`, the Ratio IC50 in the series filed under Homo sapiens was 0.89.
In the case of `C#CCN(C)CCCOc1ccc(Cl)cc1Cl` [CLORGILINE], the activity at 1.1 µM turned out to be 18.3% in series [5] and 17.3% in [6].
As for `Cc1cccc(N2CC(CO)OC2=O)c1` (stereo unspecified) [TOLOXATONE], the activity at 1.1 µM was found to be 75.4% in series [5] and 30.7% in series [6].
As to `COc1cc(-c2[o+]c3cc(O)cc(O)c3cc2O)cc(OC)c1O` [MALVIDIN CHLORIDE], the IC50 in series [7] turned out to be 22.1 µM.
In the case of `O=C1/C(=C/c2ccc(O)cc2)Oc2cc(O)ccc21`, in the series listed under Homo sapiens, the Ratio IC50 turned out to be 9.4.
`CN1Cc2c(ccc3c2OCO3)[C@@]2(C)[C@@H](O)Cc3cc4c(cc3[C@@H]12)OCO4`: the figures for the activity at 20 µM in series [1] and in series [4] were 87.9% and 87.6%, respectively. For the same compound, the IC50 in series [2] and in [3] was over 20 µM throughout.
In the case of `COc1ccc2c(c[n+](C)c3c4cc5c(cc4ccc23)OCO5)c1OC` [CHELERYTHRINE], the “inhibition (INH)” value in [8] was “Tde”. In addition, the Ratio IC50 in the series filed under Homo sapiens was over 36.4. The activity at 1.1 µM in series [5] was found to be 75%; in [6], 28.5%. In addition, the activity at 20 µM stood at 28.3% in [1] and 94.3% in [4]. In addition, the IC50 in series [2] is 0.55 µM; in series [3], over 20 µM. The Ki in [9] came out at 0.22 µM.
As for `COc1cc2c(cc1OC)[C@@H]1[C@H](C)c3ccc(OC)c(OC)c3CN1CC2`, the activity at 20 µM in series [1] worked out at 79.5%; in series [4], 54.7%. In addition, the IC50 was over 20 µM in [2] and 24.1 µM in [3].
The corresponding values for `COc1cc2c(cc1OC)[C@@H]1Cc3ccc(O)c(OC)c3CN1CC2` are 85.6%, 92.8%, over 20 µM and over 20 µM.
On the same counts, the results for `COc1cc2c(cc1O)[C@H]1Cc3ccc(OC)c(OC)c3CN1CC2` are 93.4%, 91.4%, over 20 µM and over 20 µM.

For the origin of these results see ChEMBL document CHEMBL4118277, “Selective inhibition of monoamine oxidase A by chelerythrine, an isoquinoline alkaloid” (Bioorg Med Chem Lett, 2018).
